In article PMC8958504 (Journal of Medicinal Chemistry, 2022):

Assays:
[1] = tested on: human neuroblastoma SH-SY5Y cell line; assay: Cell viability per se in SH-SY5Y cells (MTT); conditions: 100 μM, 24 h
Description: The cells from the 3rd to 12th passage were seeded at a density of 80,000 cells/well in 96-well plates and were used to assess the properties of our compounds.
After treatment, the SH-SY5Y cells, rat primary neuronal cultures, and hippocampal slices were incubated for 90 min with tetrazolium salt MTT (0.5 mg/mL) solution. This assay is based on the reduction of MTT (yellow salt) to purple insoluble formazan crystals by oxidoreductase enzymes from living cells. Thereafter, in order to solubilize the formazan crystal, the cells/slices were incubated for another 45 min in dimethyl sulfoxide (DMSO). […] The basal absorbance was set to 100%, and the results were normalized to basal conditions.

hMAO-B = target: T1, hMAO-B (Homo sapiens, UniProt P27338); assay: biochemical; conditions: read-out: hMAO-B (IC50); recombinant hMAO-B, p-tyramine substrate
T1 sequence (P27338 1-520): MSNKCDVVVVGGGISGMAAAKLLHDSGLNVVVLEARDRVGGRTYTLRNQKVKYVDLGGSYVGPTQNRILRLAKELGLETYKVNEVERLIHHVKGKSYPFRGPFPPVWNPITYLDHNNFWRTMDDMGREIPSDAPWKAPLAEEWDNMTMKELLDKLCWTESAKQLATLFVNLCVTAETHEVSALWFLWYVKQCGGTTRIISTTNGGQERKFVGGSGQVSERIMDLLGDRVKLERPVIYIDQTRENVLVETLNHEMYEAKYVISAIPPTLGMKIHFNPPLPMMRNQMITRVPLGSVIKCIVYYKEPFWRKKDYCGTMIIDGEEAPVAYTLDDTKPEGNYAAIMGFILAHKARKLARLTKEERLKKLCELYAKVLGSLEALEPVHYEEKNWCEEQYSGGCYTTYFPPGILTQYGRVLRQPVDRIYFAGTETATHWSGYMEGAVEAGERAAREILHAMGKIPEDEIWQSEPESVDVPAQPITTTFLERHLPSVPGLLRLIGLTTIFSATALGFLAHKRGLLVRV
Description: (§1) The hMAO-A/B inhibition of all compounds was determined using the Amplex Red MAO assay kit.
(§2) Assays were performed following the general procedure previously described.[98] […] The specific fluorescence emission was calculated after subtracting the background activity, which was determined from wells containing all components except the hMAO isoforms, which were replaced with PBS.

[2] = tested on: NRF2-ARE signaling pathway; assay: cells; format: cell-based; conditions: for NRF2 (CD, μM): concentration required to double luciferase activity, AREc32 cells, 24 h
Description: AREc32 cells were plated in 96-well white plates (2 × 10^4 cells/well). […]. The AREc32 cells constitutively express the plasmid pGL-8xARE that implements eight copies of the EpRE sequences, followed by the luciferase reporter gene. Therefore, NRF2 induction is related to the activation of EpRE sequences, expressing luciferase at the same extent as EpRE sequences are activated. The Luciferase Assay System (Promega E1500) was used according to the provider’s protocol, and luminescence was quantified in an Orion II microplate luminometer (Berthold, Germany). Fold induction of luciferase activity was normalized to basal conditions. Data are expressed as CD values, expressing the concentration required to double the luciferase activity. CD values were calculated from dose–response curves generated from the fold induction of control conditions versus inducer concentration and fitted by nonlinear regression and data interpolated to twofold induction concentration.[68]

mouse hippocampal slices = conditions: 1 μM, OA 1 μM, 6 h
Description: Once the treatment was ended, the cell viability was measured by the MTT method, cell death with the fluorescent probe PI (1 μg/mL), and ROS production with the fluorescent probe H2DCFDA (10 μL/mL).
Fluorescence from whole slices was measured as the mean intensity with an inverted Nikon eclipse T2000-U microscope (Nikon Instruments). […] The results were normalized to the basal condition, which was considered as 100%. Image analysis was performed using Fiji software.

QR2 = target: T2, QR2 (Mesocricetus auratus, UniProt A0ABM2YAB8); assay: biochemical; conditions: for inhibition at 10 µM: read-out: QR2 percentage of inhibition (in brackets)
T2 sequence (A0ABM2YAB8 1-231): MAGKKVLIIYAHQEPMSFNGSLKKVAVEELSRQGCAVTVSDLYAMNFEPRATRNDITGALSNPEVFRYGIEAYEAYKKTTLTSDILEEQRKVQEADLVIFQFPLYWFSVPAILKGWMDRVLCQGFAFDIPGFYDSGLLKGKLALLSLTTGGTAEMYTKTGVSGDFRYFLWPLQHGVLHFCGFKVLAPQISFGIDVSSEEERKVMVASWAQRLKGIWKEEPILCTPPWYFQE
Description: The QR2 experiments were performed in membrane homogenates of hamster brains (https://www.eurofins.fr, catalog ref. 0088). […] First, radioligand displacement was measured at a fixed compound concentration (10 μM) in each receptor.

[3] = Oxygen radical absorbance capacity (ORAC-FL) assay; conditions: trolox = 1.0
Description: 2,2′-Azobis-(amidinopropane) dihydrochloride (AAPH), trolox, and fluorescein (FL) were purchased from Sigma-Aldrich. The reaction was carried out in a 75 mM phosphate buffer (pH 7.4), and the final reaction mixture was 200 μL. […] Antioxidant curves (fluorescence vs time) were first normalized to the curve of the blank corresponding to the same assay, and the area under the curve (AUC) of fluorescence decay was calculated. The net AUC corresponding to a sample was calculated by subtracting the AUC corresponding to the blank. Regression equations between the net AUC and antioxidant concentration were calculated for all the samples.

hMAO-A = target: T3, hMAO-A (Homo sapiens, UniProt P21397); assay: biochemical; conditions: read-out: hMAO-A (IC50); recombinant hMAO-A, p-tyramine substrate
T3 sequence (P21397 1-527): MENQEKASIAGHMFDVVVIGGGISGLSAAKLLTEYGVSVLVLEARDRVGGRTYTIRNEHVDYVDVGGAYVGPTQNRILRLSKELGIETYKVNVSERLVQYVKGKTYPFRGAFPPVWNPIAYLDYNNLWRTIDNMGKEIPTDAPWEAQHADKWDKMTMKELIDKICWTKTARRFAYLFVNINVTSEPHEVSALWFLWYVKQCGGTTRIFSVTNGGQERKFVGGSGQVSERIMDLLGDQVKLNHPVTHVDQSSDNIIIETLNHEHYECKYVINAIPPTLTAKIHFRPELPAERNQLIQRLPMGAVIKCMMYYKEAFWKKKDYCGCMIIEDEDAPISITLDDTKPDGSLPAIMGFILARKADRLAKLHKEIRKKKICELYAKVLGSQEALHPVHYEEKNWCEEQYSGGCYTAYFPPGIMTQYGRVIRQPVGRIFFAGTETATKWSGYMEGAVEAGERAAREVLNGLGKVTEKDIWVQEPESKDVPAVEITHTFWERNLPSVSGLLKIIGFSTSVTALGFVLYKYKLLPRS
Description: as §1, §2

in vitro = in vitro ADME; conditions: for Papp at 240 min, 100 μg mL^–1: PAMPA, pH 7.4, class from PAMPA-BBB Pe, read-out: CNS-permeability prediction; for PAMPA-BBB (Pe, 10^–6 cm s^–1): porcine brain lipid, PBS/EtOH (70:30), 240 min, 25 °C
hMT2R = target: T4, hMT2R (Homo sapiens, UniProt P49286); assay: hMT2R radioligand displacement in transfected CHO cells; conditions: read-out: hMT2R binding affinity (Ki)
T4 construct: host or cells: Chinese hamster ovary cells
T4 sequence (P49286 1-362): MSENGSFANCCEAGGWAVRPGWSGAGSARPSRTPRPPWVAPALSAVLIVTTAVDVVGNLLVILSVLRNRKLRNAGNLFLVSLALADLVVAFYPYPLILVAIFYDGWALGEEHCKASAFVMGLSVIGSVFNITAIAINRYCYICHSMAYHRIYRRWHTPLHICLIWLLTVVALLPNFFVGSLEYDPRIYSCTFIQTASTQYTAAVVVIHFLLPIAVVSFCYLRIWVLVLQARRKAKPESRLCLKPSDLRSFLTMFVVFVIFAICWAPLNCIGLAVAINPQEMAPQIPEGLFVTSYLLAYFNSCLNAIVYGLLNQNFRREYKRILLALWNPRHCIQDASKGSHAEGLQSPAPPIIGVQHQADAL
Description: Assays in MT1R and MT2R were carried out using human receptors that were stably transfected in Chinese hamster ovary cells (https://www.eurofins.fr, catalog refs. 1538 and 1687). The QR2 experiments were performed in membrane homogenates of hamster brains (https://www.eurofins.fr, catalog ref. 0088). […] First, radioligand displacement was measured at a fixed compound concentration (10 μM) in each receptor. […] (E)-Resveratrol and melatonin were tested for comparative purposes.

[4] = tested on: rat primary cortical neurons; assay: Neuroprotection against OA-induced toxicity in rat primary cortical neuronal cultures (MTT); conditions: for neuroprotection against OA-induced toxicity: compound 1 μM, OA 10 nM
adult mice NSCs = assay: Neurogenic studies in SGZ-derived neurospheres; format: cell-based, mouse; conditions: 10 μM
Description: Adult mice NSCs were isolated from SGZ of the dentate gyrus of the hippocampus and grown as free-floating neurospheres (NS).[72],[78] The neurogenic potential of each compound was determined using fluorescence confocal microscopy by quantifying the expression of two well-known neuronal markers: human β-III-tubulin (TuJ-1 clone) and microtubule-associated protein 2 (MAP-2). TuJ-1 is expressed in immature neurons, whereas the expression of MAP-2 indicates a consolidated mature neuronal stage.[79] Given that neurogenesis involves not only the proliferation of NSC but also the migration of newly generated cells, the greatest migration distance promoted by each compound was also measured (Figure 8).
Adult male C57BL/6 mice (3 months old) were used in order to determine neurogenesis activity. […] DAPI staining was used as a nuclear marker. Fluorescent representative images were acquired with a Nikon fluorescence microscope 90i coupled to a digital camera Qi. The microscope configuration was adjusted to produce the optimum signal-to-noise ratio. […] Quantification was undertaken using the image analySIS software (Soft Imaging System Corp., Münster, Germany) and normalized to total nuclei (DAPI-stained). The intensity of immunostaining of neurites from TuJ1-labeled cells and the number of MAP-2-positive cells were estimated from nine neurospheres per condition over three independent experiments. The outgrowth of the neurosphere cells was examined under a phase-contrast microscope and the farthest distance of cell migration was calculated from the edge of the sphere. At least 10 plated neurospheres per treatment were analyzed.

Experimental pKa = format: physicochemical
Description: Introduction of the propargyl group in derivatives 2 was achieved by alkylation of the NH group of the oxadiazolone ring with propargyl bromide in basic media (K2CO3) and acetone. […] However, alkylation of the 3-hydroxylated derivative 3l was carried out overnight at room temperature (rt) in order to avoid possible secondary reactions through the phenolic group (experimental pKa for NH-oxadiazolone, 7.04 ± 0.02; for phenol 8.72 ± 0.02, Supporting Information 1, Table S1 and Figure S11).

SMILES	reduction of cell viability [1]	IC50 (hMAO-B)	NRF2 (CD, μM) [2]	cell viability (MTT) (mouse hippocampal slices)	IC50 (QR2)	inhibition at 10 µM (QR2)	ORAC (trolox equiv) [3]	IC50 (hMAO-A)	Papp at 240 min, 100 μg mL^–1 (in vitro)	PAMPA-BBB (Pe, 10^–6 cm s^–1) (in vitro)	Ki (hMT2R)	neuroprotection against OA-induced toxicity [4]	capacity to differentiate NSCs (adult mice NSCs; data not shown)	EC (2-fold induction) ([2]; Arec32, 24 h, read-out: NRF2 (CD, μM), concentration required to double luciferase activity, AREc32 cells, 24 h)	pKa (Experimental pKa; experimental pKa for NH-oxadiazolone)	pKa (Experimental pKa; experimental pKa for phenol)	TuJ-1 and MAP-2 marked cells (adult mice NSCs)	cell migration distance (adult mice NSCs)	viability at 1 µM ([4]; Rattus norvegicus, Primary cortical neuron, read-out: cell viability)
Oc1ccc(/C=C/c2cc(O)cc(O)c2)cc1 [(E)-resveratrol, reference compound]	over 50%	29.9 ± 1.8 µM	21.0 ± 2.0 µM	significantly increased the cell viability to almost basal levels, in a similar way to resveratrol treatment	–	–	–	–	–	–	–	–	–	–	–	–	–	–	–
C#CCNC(=O)/C=C/c1cccc(OC)c1 [6d, (2E)-3-(3-Methoxyphenyl)-N-(prop-2-yn-1-yl)prop-2-enamide]	–	> 50 µM	–	–	~10 µM	76%	<0.1 trolox equiv	> 50 µM	> 4 ×10⁻⁶ cm/s	4.1 ± 0.2 10^–6 cm s^–1	1.4 µM	–	–	–	–	–	–	–	–
C#CCn1nc(/C=C/c2ccccc2)oc1=O [4a, 5-[(E)-2-Phenylethenyl]-3-(prop-2-yn-1-yl)-1,3,4-oxadiazol-2(3H)-one]	around 30%	9.87 ± 1.22 µM	16.9 ± 0.4 µM	–	> 10 µM	44%	<0.1 trolox equiv	> 50 µM	> 4 ×10⁻⁶ cm/s	13.6 ± 0.5 10^–6 cm s^–1	–	not able to significantly reduce neuronal death	poor capacity to differentiate NSCs	–	–	–	–	–	–
O=c1[nH]nc(/C=C/c2cccc(O)c2)o1 [3l, 5-[(E)-2-(3-Hydroxyphenyl)ethenyl]-1,3,4-oxadiazol-2(3H)-one]	–	> 50 µM	–	–	–	–	3.8 ± 0.1 trolox equiv	> 50 µM	< 2 ×10⁻⁶ cm/s	≤ 0.5 10^–6 cm s^–1	–	–	–	> 60 µM	7.04 ± 0.02	8.72 ± 0.02	clearly increased	extended	–
C#CCn1nc(/C=C/c2cccc(OC)c2)oc1=O [4d, 5-[(E)-2-(3-Methoxyphenyl)ethenyl]-3-(prop-2-yn-1-yl)-1,3,4-oxadiazol-2(3H)-one]	–	0.64 ± 0.06 µM	7.44 ± 0.34 µM	–	0.4 ± 0.03 µM	–	0.3 ± 0.06 trolox equiv	> 50 µM	> 4 ×10⁻⁶ cm/s	7.5 ± 0.3 10^–6 cm s^–1	–	slightly higher neuroprotection profile than resveratrol	–	–	–	–	clearly increased	extended	86%
